The values below come from ChEMBL document CHEMBL4130457, “Discovery of AZD-2098 and AZD-1678, Two Potent and Bioavailable CCR4 Receptor Antagonists” (ACS Med Chem Lett, 2017).

The target of data set [1] is T1, C-C chemokine receptor type 4 (Homo sapiens, UniProt P51679).
T1 sequence (P51679 whole entry): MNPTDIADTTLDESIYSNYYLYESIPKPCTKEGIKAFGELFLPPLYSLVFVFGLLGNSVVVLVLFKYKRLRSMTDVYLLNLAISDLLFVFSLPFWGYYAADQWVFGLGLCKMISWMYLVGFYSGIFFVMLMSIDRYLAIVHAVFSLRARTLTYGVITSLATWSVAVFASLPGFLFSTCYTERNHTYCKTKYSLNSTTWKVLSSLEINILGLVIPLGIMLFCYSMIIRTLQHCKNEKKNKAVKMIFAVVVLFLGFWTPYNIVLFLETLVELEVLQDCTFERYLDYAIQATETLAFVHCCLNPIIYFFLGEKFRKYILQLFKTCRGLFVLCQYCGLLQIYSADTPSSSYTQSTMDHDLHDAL
Put plainly: Antagonist activity at recombinant human CCR4 expressed in CHO-K1 cells assessed as inhibition of CCL22 induced Ca2+ mobilization after 2 hrs by FMAT based fluorescence assay. The format is functional, cell-based. In general terms: A change in cytosolic calcium serves as a functional read-out for many receptors and channels.

A short description of data set [2]: Protein binding in human plasma. The format is ADME, cell-free. Particulars: read-out: PPB (converted).
Data set [3] is described as follows: Lipophilicity, log P of the compound. The format is physicochemical. The settings on record: octanol/water.
Data set [4] has as its target T2, C-C chemokine receptor type 4 (Homo sapiens) (UniProt P51679).
T2 sequence (whole entry): T1 sequence (P51679 whole entry)
Nature of the data set: Antagonist activity at recombinant human CCR4 expressed in CHO-K1 cells assessed as inhibition of CCL22 induced Ca2+ mobilization at 10 uM after 2 hrs by FMAT based fluorescence assay relative to control. It is filed as functional, cell-based.

Each structure is given as a SMILES string.

The IC50 is the midpoint of a concentration-inhibition curve. As usually defined, the logP is the decadic logarithm of the partition coefficient of the neutral form, usually between octanol and water. Lower therefore signals a more hydrophilic compound. One may read the inhibition as how much of the control response was suppressed.

Regarding `COc1nc(Cl)cnc1NS(=O)(=O)c1cccc(Cl)c1F`, in data set [1], the IC50 is 79.4 nM.

Regarding `COc1nc(Br)cnc1NS(=O)(=O)c1ccc(Cl)cc1`, in data set [1], the IC50 is 126 nM.

Turning to `COc1nc(Cl)cnc1NS(=O)(=O)c1cccc(Cl)c1C#N`, the IC50 in data set [1] was 63.1 nM.

Consider `COc1nc(Cl)cnc1NS(=O)(=O)c1scc(Cl)c1Cl`, for which the IC50 in data set [1] is 7.94 nM.

Take `CC(C)(C)COc1nc(Cl)cnc1NS(=O)(=O)c1cccc(Cl)c1Cl`: the IC50 in data set [1] is 7940 nM.

`COc1ncc(F)nc1NS(=O)(=O)c1cccc(Cl)c1Cl`: the IC50 in data set [1] was 3.98 nM. For the same compound, the fraction unbound in data set [2] was less than 0.002. The logP in data set [3] was 3.3.

For `COc1nc(C)cnc1NS(=O)(=O)c1cccc(Cl)c1Cl`, the IC50 in data set [1] is 39.8 nM. Also, the fraction unbound in data set [2] is 0.0035. Besides, in data set [3], the logP amounted to 3.

As to `CSc1nc(Br)cnc1NS(=O)(=O)c1ccc(Cl)s1`, in data set [1], the IC50 was 3160 nM.

Turning to `CCc1nc(Br)cnc1NS(=O)(=O)c1ccc(Cl)s1`, the IC50 in data set [1] was 5010 nM.

`COc1nc(Br)cnc1NS(=O)(=O)c1ccc(Cl)c(Cl)c1`: the IC50 in data set [1] was 200 nM.

Take `O=S(=O)(Nc1ncc(Cl)nc1OCc1ccccc1CO)c1cccc(Cl)c1Cl`: the fraction unbound in data set [2] is less than 0.001.

For the compound `COc1nc(Br)cnc1NS(=O)(=O)c1cccc(Cl)c1Cl`, the IC50 in data set [1] is 10 nM. Besides, the fraction unbound in data set [2] was less than 0.001.

For `CCOc1nc(Br)cnc1NS(=O)(=O)c1ccc(Cl)s1`, the IC50 in data set [1] was 200 nM.

Take `O=S(=O)(Nc1ncc(Cl)nc1OCc1cccnc1)c1cccc(Cl)c1Cl`: the IC50 in data set [1] was 0.631 nM. Also, in data set [2], the fraction unbound is less than 0.001.

With `COc1nc(Br)cnc1NS(=O)(=O)c1ccc(Cl)cc1Cl`, the IC50 in data set [1] was 126 nM.

On to `C=CCOc1nc(Cl)cnc1NS(=O)(=O)c1cccc(Cl)c1Cl`, for which the IC50 in data set [1] is 15.8 nM.

On to `COc1nc(Br)cnc1NS(=O)(=O)c1cc(Cl)c(Cl)s1`, for which the IC50 in data set [1] is 1000 nM.

For the compound `COc1nc(Br)cnc1NS(=O)(=O)c1cc(Cl)ccc1Cl`, the IC50 in data set [1] was 3160 nM.

In the case of `CCCCS(=O)(=O)Nc1ncc(Cl)nc1OC`, the IC50 in data set [1] is 3160 nM.

Take `COc1nc(Cl)cnc1NS(=O)(=O)c1cccc(F)c1Cl`: the IC50 in data set [1] is 15.8 nM.

`C#CCOc1nc(Cl)cnc1NS(=O)(=O)c1cccc(Cl)c1Cl`: in data set [1], the concentration for half-maximal inhibition (IC50) was 2.51 nM.

Consider `COc1nc(Br)cnc1NS(=O)(=O)c1cccc(Cl)c1`, for which, in data set [1], the IC50 was 100 nM.

In the case of `COc1nc(Br)cnc1NS(=O)(=O)c1cc(Cl)cc(Cl)c1`, the IC50 in data set [1] was 5010 nM.

`CCOc1cnc(NS(=O)(=O)c2cccc(Cl)c2Cl)c(OC)n1`: the IC50 in data set [1] was 12.6 nM. Besides, the fraction unbound in data set [2] is less than 0.001. Further, the logP in data set [3] worked out at 4.1.

As to `COc1nc(Br)cnc1NS(=O)(=O)c1ccccc1`, the IC50 in data set [1] was 794 nM.

For `COc1nc(CO)c(Cl)nc1NS(=O)(=O)c1cccc(Cl)c1Cl`, in data set [1], the IC50 is 3.98 nM. Further, the fraction unbound in data set [2] was 0.004. Besides, the logP in data set [3] is 3.2.

For `COc1nc(Br)cnc1NS(=O)(=O)c1sccc1-c1ccccc1`, in data set [1], the IC50 was 1000 nM.

On to `COc1nc(Cl)cnc1NS(=O)(=O)c1cccc(C(F)(F)F)c1Cl`, for which the IC50 in data set [1] was 63.1 nM.

With `COc1nc(Br)cnc1NS(=O)(=O)c1sc(Cl)cc1Br`, the half-maximal inhibitory concentration (IC50) in data set [1] is 39.8 nM.

On to `COc1nc(CO)cnc1NS(=O)(=O)c1cccc(Cl)c1Cl`, for which, in data set [1], the IC50 was 25.1 nM. Moreover, in data set [2], the fraction unbound was 0.038. Further, the logP in data set [3] is 2.1.

For the compound `COc1nc(Cl)cnc1NS(=O)(=O)c1cccc(Cl)c1Cl`, the fraction unbound in data set [2] was less than 0.001. For the same compound, in data set [3], the logP came out at 4.1.

Turning to `COc1ncc(C)nc1NS(=O)(=O)c1cccc(Cl)c1Cl`, in data set [1], the IC50 was 50.1 nM. In addition, the fraction unbound in data set [2] was less than 0.002.

As to `COc1ncc(Cl)nc1NS(=O)(=O)c1cccc(Cl)c1Cl`, the IC50 in data set [1] was 7.94 nM. Also, the fraction unbound in data set [2] is less than 0.001. In data set [3], this compound displayed a lipophilicity (logP) of 4.5.

In the case of `COc1nc(Br)cnc1NS(=O)(=O)c1ccsc1`, the IC50 in data set [1] is 1260 nM.

With `O=S(=O)(Nc1ncc(Cl)nc1OCc1cccc(Br)c1)c1cccc(Cl)c1Cl`, the concentration for half-maximal inhibition (IC50) in data set [1] was 3.98 nM. The fraction unbound in data set [2] was less than 0.001.

Regarding `COc1nccnc1NS(=O)(=O)c1scc(Cl)c1Cl`, the IC50 in data set [1] was 20 nM. In addition, the fraction unbound in data set [2] is 0.025. This compound showed a logP in data set [3] of 2.8.

With `O=S(=O)(Nc1ncc(Cl)nc1OCc1cncnc1)c1cccc(Cl)c1Cl`, the IC50 in data set [1] is 12.6 nM. For the same compound, in data set [2], the fraction unbound was less than 0.001.

Consider `COc1nc(F)c(F)nc1NS(=O)(=O)c1cccc(Cl)c1Cl`, for which, in data set [1], the IC50 was 1 nM. Also, in data set [2], the fraction unbound was less than 0.002.

Regarding `COc1nc(Cl)cnc1NS(=O)(=O)c1ccnc(Cl)c1Cl`, the IC50 in data set [1] is 10000 nM.

For the compound `CNc1nc(Br)cnc1NS(=O)(=O)c1ccc(Cl)s1`, the IC50 in data set [1] was more than 10000 nM. In data set [4], the inhibition amounted to 44%.

As for `COc1nc(S(C)(=O)=O)cnc1NS(=O)(=O)c1cccc(Cl)c1Cl`, the IC50 in data set [1] was 5010 nM.

Turning to `COc1nc(CO)c(C)nc1NS(=O)(=O)c1cccc(Cl)c1Cl`, the half-inhibitory concentration (IC50) in data set [1] was 39.8 nM. Besides, the fraction unbound in data set [2] was 0.013. Further, the logP in data set [3] amounted to 2.4.

On to `COc1nc(Cl)cnc1NS(=O)(=O)c1cccc(Cl)c1C`, for which the IC50 in data set [1] was 20 nM.

`COc1nc(Br)cnc1NS(=O)(=O)c1cccs1`: the IC50 in data set [1] was 631 nM.

With `COc1nc(Br)cnc1NS(=O)(=O)c1ccccc1Cl`, the IC50 in data set [1] was 158 nM.

As for `COc1nc(Br)cnc1NS(=O)(=O)c1c(Cl)cccc1Cl`, the IC50 in data set [1] was 631 nM.
